Test results taken from patent US7144862B2, “Orally administered peptides to ameliorate atherosclerosis” (The Regents of the University of California, priority 2000, dated 2006).
Where “and” joins values, the source holds several entries; their conditions need not be identical. Equal values may be shown once.

Columns and labels:
[1] = Non-denaturing PAGE, self-association; format: physicochemical; settings: 100 and 250 μg/ml
Protocol: Non-denaturing and SDS-PAGE and was carried out using the method of Laemmli (1970) Nature 227: 680–685. Premade Novex gels were used and the gel was stained with Coomassie blue to identify the protein bands.

[2] = Surface pressure measurements: monolayer exclusion pressure; format: physicochemical; settings: EPC monolayer; reproducibility ± 1 dyn/cm
Protocol: An insoluble monolayer of egg phosphatidylcholine (EPC) was spread at the air-water interface in a Teflon dish at room temperature to give an initial surface pressure (πi) in the range of 5–45 dyn/cm. A solution of peptides in PBS containing 1.5M Gdn. HCl was carefully injected in to the subphase to give a final concentration of 50 μg/dL. The Gdn. HCl was diluted in the subphase to a final concentration of ≦1 mM to allow the peptides to renature. The subphase was stirred continuously and the increase in EPC monolayer surface pressure (Δπ) was recorded until a steady state value was obtained. The value of the initial surface pressure (πi) at which the peptides no longer penetrate the EYPC monolayer i.e. the exclusion pressure (πe), was calculated by extrapolating the πi vs Δπ linear regression fit to Δπ=0 dyn/cm.

[3] = DSC, chain melting transition of DMPC; format: physicochemical; settings: DMPC/peptide 100:1 (mol/mol)
Protocol: (§1) A known amount of phospholipid was dissolved in chloroform. For one set of samples, peptide was dissolved in methanol and added to a solution of DiPoPE in chloroforn/methanol (2:1, v:v). For both, pure lipid samples and the organic solutions of lipid and peptide, solvent was removed under a slow stream of nitrogen. Residual solvent was removed under vacuum. […] For DMPC, four consecutive scans with a 60 minute equilibration time between scans were taken. DSC thermograms were analyzed using the software provided by MicroCal Inc., Amherst, Mass., and Origin, version 5.0.
The effect of these 18A analogues on the chain melting transition of multilamellar vesicles of DMPC was studied by DSC using peptide-lipid mixtures at 100:1 lipid/peptide molar ratio.

[4] = test system: human artery wall cell cocultures; assay: LDL-induced monocyte chemotactic activity with the homologous series of peptides (Example 3); format: cell-based; settings: peptide at 100 μg/ml, LDL 250 μg protein/ml, 8 h
Protocol: Microtitre plates were treated with 0.1% gelatin at 37° C. overnight. HASMC were added at a confluent density of 1×10^5 cells/cm^2. […] HAEC were subsequently added at 2×10^5 cells/cm^2 and were allowed to grow, forming a complete monolayer of confluent HAEC in two days. In all experiments, HAEC and autologous HASMC (from the same donor) were used at passage levels of four to six. […] The cocultures were treated with native LDL(250 μg protein/ml) or presence of HDL (350 μg protein/ml) or peptides for 8 h.

[5] = Circular dichroism, percent helicity; format: physicochemical
Protocol: Briefly, spectra were obtained using a cell with a 0.1 cm path length and measurements were taken every nm from 260 nm to 190 nm at 25° C. All the CD spectra were signal averaged by adding four scans, base line corrected and smoothed. Peptide solutions in PBS, pH 7.4, were used at a concentration of 11 μM. Peptide-DMPC complexes (1:20 mol:mol) were used to determine the effect of lipid binding on the helicity of these peptides. These complexes were prepared by adding the appropriate volume of peptide solution to DMPC multilamellar vesicles. DMPC multilamellar vesicles were prepared as follows: A known amount of lipid was dissolved in ethanol and the solvent was removed by evaporating slowly under a thin stream of nitrogen. Residual solvent was removed by storing the lipid film under vacuum overnight. An appropriate volume of PBS, pH 7.4 was added to the thin lipid film to give the required final concentration of DMPC.

C57 BL6 mice = assay: Diet-induced lesion formation with 2F; format: in vivo, mouse
Description: It follows that in this mouse model, inhibition of LDL-induced monocyte chemotaxis is more anti-atherogenic than LCAT activation. Since the peptides 2F and 4F are similar in activating LCAT, and 4F and 5F are similar in removing “seeding molecules” from LDL, the peptide 4F may serve as a reagent to distinguish between the importance of LCAT activation and the inhibition of LDL-induced monocyte chemotaxis in different atherosclerosis-sensitive mouse models. If the inhibition of LDL-induced chemotaxis is more important than the LCAT-activating ability, then 4F should be better peptide to use as an inhibitor of atherosclerosis since this peptide is more soluble than the peptides 5F, 6F and 7F.

[6] = DSC, bilayer to hexagonal phase transition of DiPoPE; format: physicochemical; settings: heating scan rate 37°/h
Protocol: as §1
In the current study we prepared the peptide-lipid mixtures in two ways. One was by adding the peptide in organic solvent to the lipid in organic solvent followed by depositing the material as a film and subsequently hydrating with buffer. In the other method, the peptide and lipid were mixed after each was hydrated separately. If the mixture comes to equilibrium prior to the DSC analysis, it should not matter how the peptide and lipid are originally mixed. However, membrane systems can equilibrate slowly, in which case there may be more peptide in the lipid when it was incorporated at high concentrations into the lipid film.

[7] = Right angle light scattering, dissolution of EPC MLVs; format: physicochemical; settings: 105 μM EPC, equimolar peptide, 25° C., 30 min
Protocol: EPC MLVs were prepared by evaporating a solution of EPC (Avanti Polar, AL) under nitrogen and hydrating the lipid film with phosphate-buffered saline (pH 7.4). […] Turbidity clarification was monitored for 30 min.

Solubility in PBS = format: physicochemical; settings: in PBS
Protocol: The peptides were purified on a preparative Vydac C4 column by reversed-phase (RP)-HPLC using water (with 0.1% trifluoroacetic acid) and acetonitrile (0.1% trifluoroacetic acid). The purity and the retention times of the peptides were determined on an analytical Vydac C18 column using a gradient of 25%-58% acetonitrile in water containing 0.1% TFA. The purity of these peptides was also confirmed by mass spectrometry. The mass was in agreement with the calculated molecular weight. Although both the 3F peptides and 4F have additional Phe residues compared to 2F, the retention times of these peptides on the C18 column are not very different (˜22 min). A sudden increase in the retention time is apparent with 5F, 6F and 7F (˜26 min). With increasing number of Phe residues, the solubility of these peptides in PBS decreases.

[8] = Plasma total and HDL cholesterol after oral D-4F; format: in vivo, mouse; settings: for Mean HDL-cholesterol / plasma total cholesterol concentration: apo E null mice
Protocol: Protein (Navab et al. (2000) J Lipid Res. 41: 1481–1494) and cholesterol (Van Lenten et al. (2001) Circulation, 103: 2283–2288) content of lipoproteins and statistical analyses were performed as described by Van Lenten et al. (2001) Circulation, 103: 2283–2288, with significance defined as P<0.05.

[9] = test system: LDL receptor null mice on a Western diet; assay: Aortic root lesions, oral gavage twice daily for 6 weeks; format: in vivo, mouse; settings: oral gavage twice daily for 6 weeks (2.5 mg in liposomes)
Protocol: Groups of LDL receptor null mice were placed on a Western diet and were given by oral gavage, 100 μl of saline alone (Saline), n=4 animals, or 100 μl of liposomes without D-4F (Liposomes), n=5 animals, or 2.5 mg D-4F peptide in 100 μl liposomes (D-4F in liposomes), n=6 animals, twice daily for 6 weeks. The mice were bled, and subsequently sacrificed, aortic root fixed, sectioned and the extent of Oil Red O staining in fatty streak lesions quantified.
Female LDL receptor null or apo E null mice on a C57BL/6J background were purchased from the Jackson Laboratory, Bar Harbor, Me. The LDL receptor null mice were maintained on Purina chow diet (Ralston Purina Co.) until they were 4 weeks old when they were switched to a Western diet (Teklad, Madison, Wis., diet # 88137) for 6 weeks. The apo E null mice were maintained on Purina chow diet throughout the study LDL receptor null mice received the test peptide or a vehicle control by gastric gavage twice daily for the periods indicated in the figure legends. […]
Mice were bled under anesthesia from the retro-orbital venous plexus, in accordance with protocols approved by the UCLA Animal Research Committee. Atherosclerotic lesions were measured as previously described^9.

[10] = test system: human artery wall cell cocultures; assay: Lipoproteins from mice given peptide by gavage tested in human artery wall cell cocultures (monocyte chemotactic activity); settings: 4F, 100 μg by oral gavage, LDL receptor deficient mice, blood after 6 hrs
Protocol: Groups of LDL receptor-deficient mice (n=3) were administered the D-peptides or the saline vehicle by gavage. […] Blood was collected from retroorbital sinus under mild anesthesia 17 hrs later. LDL was isolated from plasma by FPLC. Cocultures of artery wall cells were incubated with medium alone (NO ADDITION), control LDL from normal subjects (LDL), LDL plus control HDL from normal subjects (+HDL). […] The cocultures were incubated for 4 hrs at 37° C. in the presence of 10% LPDS. The supernatants were then discarded, the cocultures were washed and incubated with culture medium without serum or LPDS for an additional 4 hrs. This conditioned medium was collected and analyzed for monocyte chemotactic activity. The values are mean±SD of quadruplicate cocultures.
Blood was collect after 6 hrs, plasma HDL and LDL were isolated by gel filtration (FPLC) and examined in the cocultures. […] Human LDL at 200 μg protein/ml was added to human artery wall cell cocultures together with human HDL (hHDL) at 350 μg protein/ml or mouse HDL (mHDL) at 100 μg cholesterol/ml taken from mice that received saline (Saline Rx) or L-4F (L-4F Rx) or D-4F (D-4F Rx) and monocyte chemotactic activity was determined as described herein. […] On the right, mouse LDL (mLDL) was isolated from mice receiving saline (Saline Rx) or L-4F (L4F Rx) or D-4F (D-4F Rx) and was added at 100 μg cholesterol/ml to the artery wall cell cocultures without HDL and monocyte chemotactic activity determined. Values are mean±SD) for four wells in two independent experiments.
Either saline or 2F synthesized from D amino acids or from L amino acids was instilled in the stomachs of mice by gavage (instillation in the stomach by tube). After gavage the mice were bled and their LDL isolated and added to the human artery wall cell cocultures.
The animals were bled 1.5, 3 or 6 hours later and their HDL, LDL, and VLDL/IDL isolated.
Human aortic endothelial and smooth muscle cells were isolated and cultured as previously described (Id.). Cellular oxidation of LDL in the presence and absence of HDL was determined as described (Id.). Human blood monocytes were isolated after obtaining informed consent and monocyte chemotaxis was determined as described previously^5.

[11] = test system: mice infected with Influenza A virus; format: in vivo, mouse; settings: 20 micrograms daily injected after infection
[12] = LDL receptor null mice, Western diet, gavage twice daily 6 weeks
[13] = 2.5 mg/mouse/day in drinking water
[14] = 5.0 mg/mouse/day in drinking water

Ac-DWLKAFYDKVAEKLKEAF-NH2 [Peptide 2F, Ac-D-W-L-K-A-F-Y-D-K-V-A-E-K-L-K-E-A-F-NH2]
self-association on non-denaturing PAGE [1]: forms aggregates in a concentration dependent manner | Monolayer Exclusion Pressure(πc) [2]: 38 dyn/cm | TCM(° C.) ([3]; 1.5 mM DMPC, chain melting transition temperature): 23.2 °C | ΔHCM (kcals/mol) ([3]; enthalpy of the transition): 4.5 kcals/mol | ΔT1/2 (° C.) ([3]; width at half maximum of the transition): 0.5 °C | inhibition of LDL-induced monocyte chemotaxis [4]: some inhibitory activity | Percent Helicity PBS ([5]; 11 μM peptide in PBS): 55% | Percent Helicity DMPC ([5]; 11 μM peptide, Peptide: DMPC 1:20 (mol/mol)): 72% | mean lesion area (C57 BL6 mice; 2F-administered mice, n=15, PBS control 14.7±1.8): 13.2±1.7 μm^2×10^−3 | inhibition of diet-induced lesion formation (C57 BL6 mice; C57 BL6 mice): did not significantly inhibit diet-induced lesion formation | shift in TH of DiPoPE with mol fraction of peptide [6]: linear increase in TH | clarification of EPC MLVs [7]: clarified the EPC MLVs to a similar extents | Solubility (Solubility in PBS): >2.0 mg/mL | solubility (Solubility in PBS; read-out: Solubility): 1250 to 1400 µg/mL

CC(=O)N[C@H](CC(=O)O)C(=O)N[C@H](Cc1c[nH]c2ccccc12)C(=O)N[C@H](Cc1ccccc1)C(=O)N[C@H](CCCCN)C(=O)N[C@H](C)C(=O)N[C@H](Cc1ccccc1)C(=O)N[C@H](Cc1ccc(O)cc1)C(=O)N[C@H](CC(=O)O)C(=O)N[C@H](CCCCN)C(=O)N[C@@H](C(=O)N[C@H](C)C(=O)N[C@H](CCC(=O)O)C(=O)N[C@H](CCCCN)C(=O)N[C@H](Cc1ccccc1)C(=O)N[C@H](CCCCN)C(=O)N[C@H](CCC(=O)O)C(=O)N[C@H](C)C(=O)N[C@H](Cc1ccccc1)C(N)=O)C(C)C [Peptide D-4F, Ac-D-W-F-K-A-F-Y-D-K-V-A-E-K-F-K-E-A-F-NH2]
Total cholesterol [8, 12]: 761 ± 69 mg/dL | mean HDL-cholesterol level [8, 12]: 73 ± 8.7 mg/dL | Mean HDL-cholesterol [8, 13]: 38.7 ± 5 mg/dL | plasma total cholesterol concentration [8, 13]: 534 ± 12.3 mg/dL | Mean HDL-cholesterol [8, 14]: 43.4 ± 6 mg/dL | plasma total cholesterol concentration [8, 14]: 579 ± 4.6 mg/dL | reduction in atherosclerotic lesions [9]: 79% and 81% | HDL protective capacity [10]: enhance HDL protective capacity | LDL-induced monocyte chemotactic activity (mouse LDL) [10]: decrease LDL-induced monocyte chemotactic activity | biologically active oxidized phospholipids in the aorta after influenza A infection [11]: not generated beyond background | plasma paraoxonase levels after influenza A infection [11]: did not fall
